# Test results published in US20080193530A1 (priority 2007, published 2008).
# “Also recorded” adds a separate entry of the source.
# System: glycosylated hemoglobin level (HbA1C)
# Assay: Clinical study of ranolazine (IV dose, then oral sustained release) vs placebo in patients having coronary disease: HbA1C
# Assay type: in vivo, human
# Source text: Baseline is in-hospital visit prior to hospitalization.
# [1] = Diabetes at enrollment, ranolazine group (n = 1098), Month 16
# [2] = No Diabetes at enrollment, ranolazine group (n = 2170), Final Visit
# [3] = No Diabetes at enrollment, ranolazine group (n = 2170), Month 4
# [4] = No Diabetes at enrollment, ranolazine group (n = 2170), Month 8
# [5] = No Diabetes at enrollment, ranolazine group (n = 2170), Month 16
compound,measurement,setting,value
"COc1ccccc1OCC(O)CN1CCN(CC(=O)Nc2c(C)cccc2C)CC1 (racemic) [Ranolazine, (±)-N-(2,6-dimethylphenyl)-4-[2-hydroxy-3-(2-methoxyphenoxy)-propyl]-1-piperazineacetamide]",Proportion of patients with HbA1c ≧7% by diabetes at enrollment,"Diabetes at enrollment, ranolazine group (n = 1098), Baseline",57%
same,Proportion of patients with HbA1c ≧7% by diabetes at enrollment,"Diabetes at enrollment, ranolazine group (n = 1098), Final Visit",42%
same,Proportion of patients with HbA1c ≧7% by diabetes at enrollment,"Diabetes at enrollment, ranolazine group (n = 1098), Month 4",41%
same,Proportion of patients with HbA1c ≧7% by diabetes at enrollment,"Diabetes at enrollment, ranolazine group (n = 1098), Month 8",44%
same,Number of patients with HbA1c ≧7% by diabetes at enrollment,[1],63
same,Proportion of patients with HbA1c ≧7% by diabetes at enrollment,[1],48%
same,Proportion of patients with HbA1c ≧7% by diabetes at enrollment,"No Diabetes at enrollment, ranolazine group (n = 2170), Baseline",6%
same,Number of patients with HbA1c ≧7% by diabetes at enrollment,[2],92
same,Proportion of patients with HbA1c ≧7% by diabetes at enrollment,[2],6%
same,Number of patients with HbA1c ≧7% by diabetes at enrollment,[3],78
same,Proportion of patients with HbA1c ≧7% by diabetes at enrollment,[3],5%
same,Number of patients with HbA1c ≧7% by diabetes at enrollment,[4],72
same,Proportion of patients with HbA1c ≧7% by diabetes at enrollment,[4],6%
same,Number of patients with HbA1c ≧7% by diabetes at enrollment,[5],21
same,Proportion of patients with HbA1c ≧7% by diabetes at enrollment,[5],7%
same,Effect on serum HbA1c levels (FIGS. 1 and 2),all patients treated,HbA1c lowering effect on all patients treated; also recorded: significantly lowers serum HbA1C levels
same,Number of patients with HbA1C ≧7%,"all patients, ranolazine group (n = 3268), Month 16",84
same,Effect on HbA1c levels (FIG. 2),diabetic patients treated with ranolazine,reduction in the amount of HbA1C levels
same,Effect on HbA1c levels (FIG. 2),non-diabetic patients treated with ranolazine,reduction in the amount of HbA1C levels
